Laboratory results reported in ChEMBL document CHEMBL1687832, “Polymyxin-resistant clinical isolates of Escherichia coli” (Antimicrob Agents Chemother, 2011).

Tests used:
Format in all cases: functional, organism-based
[1] = test system: Escherichia coli; experiment: Antimicrobial activity against drug-resistant Escherichia coli isolate 1 expressing beta-lactamase CTX-M-15 isolated from urine of patient with history of hypertension, hyperlipidemia by broth microdilution method
[2] = test system: Escherichia coli; experiment: Antimicrobial activity against drug-resistant Escherichia coli isolate 1 expressing beta-lactamase CTX-M-15 isolated from urine of patient with history of hypertension, hyperlipidemia by Etest
[3] = test system: Escherichia coli; experiment: (§1) Antimicrobial activity against drug-resistant Escherichia coli isolate 2 expressing beta-lactamase CTX-M-15 isolated from patient past medical history included multiple courses of compound treatment, multiple sclerosis, pulmonary embolism, seizure disorder, tracheostomy for respiratory failure, gastrostomy secondary to dysphagia, congestive heart failure, diabetes mellitus, and peripheral inserted central by Etest
[4] = test system: Escherichia coli; experiment: as §1, with “microdilution method” for “Etest”
[5] = test system: Escherichia coli; experiment: Antimicrobial activity against Escherichia coli ATCC 25922 by broth microdilution method
[6] = test system: Escherichia coli; experiment: Antimicrobial activity against Escherichia coli ATCC 25922 by Etest

Row | Sequence | MBC [1] [µg/mL] | MIC [1] [µg/mL] | MIC [2] [µg/mL] | MIC [3] [µg/mL] | MBC [4] [µg/mL] | MIC [4] [µg/mL] | MBC [5] [µg/mL] | MIC [5] [µg/mL] | MIC [6] [µg/mL]
1 | COLISTIN | 16 | 16 | 16 | 16 | 32 | 32 | 1 | 1 | 1.5
2 | POLYMYXIN B | 32 | 16 | 16 | 24 | 32 | 16 | 0.5 | 0.5 | 1
